Measured values published in ChEMBL document CHEMBL1125524, “Adenosine A1 antagonists. 2. Structure-activity relationships on diuretic activities and protective effects against acute renal failure” (J Med Chem, 1992).

How the values were obtained:
[1] = test system: Rattus norvegicus; assay: Ratio of urinary excretion value (urinary volume) in treated rats to that in control rats, at a peroral dose of 25 mg/Kg; type: functional, Urine
[2] = test system: Rattus norvegicus; assay: Percent inhibition of Urea nitrogen by the compound given as ratio of UN value in treated to vehicle treated ones after intraperitoneal administration of 1 mg/kg of compound to rats(vehicle 195.8+/-14.4); type: functional; conditions: Rattus norvegicus, ip
[3] = species: Rattus norvegicus; assay: animal or person; conditions: ip, read-out: Inhibition, dose 1 mg/kg, route intraperitoneal
[4] = test system: Rattus norvegicus; assay: Serum creatinine concentration measured after intraperitoneal administration of 1 mg/kg of compound to rats(vehicle 5.07+/-0.33); type: functional
[5] = test system: Rattus norvegicus; assay: Oral diuretic activity was measured after oral administration of 25 mg/kg to rats(control volume is 0.94+/-0.04); type: functional, Urine
[6] = molecular target: Adenosine A2 receptor (Rattus norvegicus, UniProt P29276+P30543)
[7] = test system: Rattus norvegicus; assay: Ratio of urinary excretion value (Na+ concentration) in treated rats to that in control rats, at a peroral dose of 25 mg/Kg; type: functional, Urine
[8] = molecular target: T1, Adenosine receptor A1 (Cavia porcellus, UniProt P47745)
T1 sequence (P47745 whole entry): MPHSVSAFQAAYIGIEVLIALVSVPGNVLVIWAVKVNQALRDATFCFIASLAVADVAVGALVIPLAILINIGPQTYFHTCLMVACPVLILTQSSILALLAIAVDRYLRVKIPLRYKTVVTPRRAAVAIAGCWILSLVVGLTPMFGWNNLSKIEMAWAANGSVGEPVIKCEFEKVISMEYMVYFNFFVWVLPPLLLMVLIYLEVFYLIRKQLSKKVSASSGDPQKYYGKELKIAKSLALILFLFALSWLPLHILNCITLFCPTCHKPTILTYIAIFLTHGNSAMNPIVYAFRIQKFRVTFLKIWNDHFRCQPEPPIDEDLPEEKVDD
Description: Binding affinity against adenosine A1 receptor in guinea pig forebrain membranes using N6-[3H]cyclohexyladenosine as radioligand

[9] = test system: Rattus norvegicus; assay: Effect on urinary excretion potassium and sodium after oral administration of 25 mg/kg to rats(potassium and sodium excretion in control rat is 0.130+/-0.009); type: functional, Urine
[10] = test system: Rattus norvegicus; assay: Urea nitrogen concentration measured after intraperitoneal administration of 1 mg/kg of compound to rats(vehicle 195.8+/-14.4); type: functional
[11] = test system: Rattus norvegicus; assay: Percent inhibition of serum creatinine by the compound given as ratio of Cr value in treated to vehicle treated ones after intraperitoneal administration of 1 mg/kg of compound to rats(vehicle 3.86+/-0.27); type: functional; conditions: ip
[12] = test system: Rattus norvegicus; assay: Effect on urinary excretion potassium and sodium after oral administration of 25 mg/kg to rats(potassium and sodium excretion in control rat is 0.134+/-0.004); type: functional, Urine
[13] = test system: Rattus norvegicus; assay: Serum creatinine concentration measured after intraperitoneal administration of 10 mg/kg of compound to rats(vehicle 3.94+/-0.24); type: functional
[14] = test system: Rattus norvegicus; assay: Urea nitrogen concentration measured after intraperitoneal administration of 10 mg/kg of compound to rats(vehicle 141.3+/-6.6); type: functional
[15] = test system: Rattus norvegicus; assay: Ratio of urinary excretion value (Na+ concentration) in treated rats to that in control rats, at a peroral dose of 6.25 mg/Kg; type: functional, Urine
[16] = test system: Rattus norvegicus; assay: Percent inhibition of serum creatinine by the compound given as ratio of Cr value in treated to vehicle treated ones fter intraperitoneal administration of 10 mg/kg of compound to rats(vehicle 3.94+/-0.24); type: functional; conditions: ip
[17] = test system: Rattus norvegicus; assay: Ratio of sodium ion/potassium ion concentration in treated rats to that in control rats, at a peroral dose of 1.6 mg/Kg; type: functional
[18] = test system: Rattus norvegicus; assay: Ratio of sodium ion/potassium ion concentration in treated rats to that in control rats, at a peroral dose of 25 mg/Kg; type: functional
[19] = test system: Rattus norvegicus; assay: Percent inhibition of Urea nitrogen by the compound given as ratio of UN value in treated to vehicle treated ones fter intraperitoneal administration of 10 mg/kg of compound to rats(vehicle 141.3+/-6.6); type: functional; conditions: ip
[20] = test system: Rattus norvegicus; assay: Ratio of urinary excretion value (Na+ concentration) in treated rats to that in control rats, at a peroral dose of 1.6 mg/Kg; type: functional, Urine
[21] = test system: Rattus norvegicus; assay: Ratio of urinary excretion value (urinary volume) in treated rats to that in control rats, at a peroral dose of 6.25 mg/Kg; type: functional, Urine
[22] = test system: Rattus norvegicus; assay: Effect on urinary excretion potassium and sodium after oral administration of 1.6 mg/kg to rats(potassium and sodium excretion in control rat is 0.261+/-0.008); type: functional, Urine
[23] = test system: Rattus norvegicus; assay: Ratio of urinary excretion value (urinary volume) in treated rats to that in control rats, at a peroral dose of 1.6 mg/Kg; type: functional, Urine
[24] = test system: Rattus norvegicus; assay: Serum creatinine concentration measured after intraperitoneal administration of 1 mg/kg of compound to rats(vehicle 3.86+/-0.27); type: functional
[25] = test system: Rattus norvegicus; assay: Percent inhibition of Urea nitrogen by the compound given as ratio of UN value in treated to vehicle treated ones after intraperitoneal administration of 1 mg/kg of compound to rats(vehicle 178+/-11.3); type: functional; conditions: ip
[26] = test system: Rattus norvegicus; assay: Oral diuretic activity was measured after oral administration of 1.6 mg/kg to rats(control volume is […]+/-[…]); type: functional, Urine
[27] = test system: Rattus norvegicus; assay: Urea nitrogen concentration measured after intraperitoneal administration of 1 mg/kg of compound to rats(vehicle 178+/-11.3); type: functional
[28] = test system: Rattus norvegicus; assay: Oral diuretic activity was measured after oral administration of 25 mg/kg to rats(control volume is 0.80+/-0.04); type: functional, Urine

CCCn1c(=O)c2nc(C3CC4C=CC3C4)[nH]c2n(CCC)c1=O (stereo in doubt; 18)
T/C [1]: 1.87
inhibition in vivo at 1 mg/kg [2]: 53%
inhibition in vivo at 1 mg/kg [3]: 56%
Cr [4]: 2.23 mg/dL
Urine volume [5]: 1.75 ml 6hr-1 100g-1
Ki [6]: 210 nM
T/C [7]: 2.09
Ki [8]: 3.4 nM
Na [9]: 0.271 m equiv 6hr-1 100g-1
UN [10]: 92.7 mg/dL

Cn1c(=O)c2nc(-c3ccccc3)[nH]c2n(C)c1=O [8-PHENYL THEOPHYLLINE]
T/C [1]: 1.38
inhibition in vivo at 1 mg/kg [11]: 19%
Na [12]: 0.201 m equiv 6hr-1 100g-1
Cr [13]: 1.74 mg/dL
UN [14]: 62.4 mg/dL
T/C [15]: 1.54
inhibition in vivo at 10 mg/kg [16]: 56%
Na+/K+ [17]: 0.87
Na+/K+ [18]: 1.39
inhibition in vivo at 10 mg/kg [19]: 56%
T/C [20]: 0.87
Ki [6]: 2300 nM
T/C [7]: 1.39
T/C [21]: 1.79
Na [22]: 0.175 m equiv 6hr-1 100g-1
T/C [23]: 0.63
Ki [8]: 1600 nM
Cr [24]: 3.14 mg/dL
inhibition in vivo at 1 mg/kg [25]: 17%
Urine volume [26]: 0.88 ml 6hr-1 100g-1
UN [27]: 148.3 mg/dL
Urine volume [28]: 1.1 ml 6hr-1 100g-1
